The values below come from patent publication US20080090805A1, “CB-1 MODULATING COMPOUNDS AND THEIR USE” (ACADIA PHARMACEUTICALS INC., priority 2005, published 2008).

Read-outs that look alike come from different tables or passages of the source.

The experiment concerns the target native CB1 receptors (Rattus norvegicus, UniProt P20272). Kind of experiment: CB1 receptor rat binding assay ([3H]SR141716A, rat brain membranes).
[1] abbreviates: rat brain membranes, [3H]SR141716A, read-out: Binding rat pKi (converted).
The mark [2] stands for this setting: rat brain membranes, [3H]SR141716A.

native CB1 receptors, sequence (P20272 whole entry): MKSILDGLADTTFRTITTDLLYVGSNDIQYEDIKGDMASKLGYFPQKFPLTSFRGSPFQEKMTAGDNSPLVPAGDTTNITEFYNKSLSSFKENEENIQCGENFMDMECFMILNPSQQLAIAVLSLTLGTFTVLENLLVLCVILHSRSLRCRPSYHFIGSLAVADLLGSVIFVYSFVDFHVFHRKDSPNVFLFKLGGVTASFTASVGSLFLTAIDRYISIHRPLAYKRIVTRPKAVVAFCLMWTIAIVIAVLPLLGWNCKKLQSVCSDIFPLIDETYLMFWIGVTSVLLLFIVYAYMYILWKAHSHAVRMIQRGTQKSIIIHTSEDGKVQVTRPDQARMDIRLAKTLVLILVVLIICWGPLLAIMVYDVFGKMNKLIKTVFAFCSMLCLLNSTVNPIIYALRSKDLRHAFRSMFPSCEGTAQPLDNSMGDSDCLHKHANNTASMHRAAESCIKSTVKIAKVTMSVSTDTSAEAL

Take `CC(NC(=O)c1ccc2c(c1)N=C(c1ccccc1)c1ccccc1S2)c1ccccc1` (stereo not shown) [drawing 1379]: under setting [1], the Ki was 31.6 nM.

For `CC(NC(=O)c1ccc2c(c1)N=C(C1CCCCC1)c1ccccc1S2)c1ccccc1` (stereo not shown) [drawing 1431], under setting [1], the Ki was 6.31 nM.

For `O=C(NN1CCCCC1)c1ccc2c(c1)N=C(c1cccc(F)c1)c1ccccc1S2` [drawing 1374], the “Binding rat Inh %” value under setting [2] was 94%. Further, the Ki under setting [1] is 31.6 nM.

For `O=C(NCCc1cccnc1)c1ccc2c(c1)N=C(c1cccc(Cl)c1)c1ccccc1S2` [drawing 1293], under setting [2], the “Binding rat Inh %” value is 97%. For the same compound, under setting [1], the Ki is 20 nM.

As for `O=C(NCc1cccs1)c1ccc2c(c1)N=C(c1ccc(Cl)cc1)c1ccccc1S2` [drawing 1279], the “Binding rat Inh %” value under setting [2] is 94%. In addition, under setting [1], the Ki was 2 nM.

As to `O=C(NCCCc1ccccc1)c1ccc2c(c1)N=C(c1ccccc1F)c1ccccc1S2` [drawing 1206], the Ki under setting [1] was 12.6 nM.

On to `CCOCCNC(=O)c1ccc2c(c1)N=C(c1ccc(C#N)cc1)c1ccccc1S2` [drawing 1543], for which the “Binding rat Inh %” value under setting [2] turned out to be 64%. In addition, under setting [1], the Ki is 100 nM.

For the compound `CCCCNC(=O)c1ccc2c(c1)N=C(c1ccc(Cl)cc1)c1cc(F)ccc1S2` [drawing 1500], under setting [2], the “Binding rat Inh %” value amounted to 90%. Further, the Ki under setting [1] was 10 nM.

As for `C[C@@H]1CCC[C@H](C)N1NC(=O)c1ccc2c(c1)N=C(c1cccc(F)c1)c1ccccc1S2` [drawing 1261], under setting [2], the “Binding rat Inh %” value turned out to be 91%. The Ki under setting [1] is 20 nM.

For the compound `O=C(NCc1ccc(Cl)cc1Cl)c1ccc2c(c1)N=C(c1ccc(F)cc1)c1ccccc1S2` [drawing 1211], the Ki under setting [1] was 12.6 nM.

Turning to `CC(CNC(=O)c1ccc2c(c1)N=C(c1cccc(Cl)c1)c1ccccc1S2)c1ccccc1` (stereo not shown) [drawing 1304], under setting [1], the Ki is 2.51 nM.

As for `CC(NC(=O)c1ccc2c(c1)N=C(c1ccc(F)cc1)c1ccccc1S2)c1ccccc1` (stereo not shown) [drawing 1471], the Ki under setting [1] is 7.94 nM.

As for `Clc1ccc(C2=Nc3cc(-c4ncc[nH]4)ccc3Sc3ccccc32)cc1` [drawing 1485], under setting [2], the “Binding rat Inh %” value is 81%. Besides, the Ki under setting [1] is 63.1 nM.

With `O=C(NC1CCC(F)(F)CC1)c1ccc2c(c1)N=C(c1ccc(F)cc1)c1ccccc1S2` [drawing 1258], the “Binding rat Inh %” value under setting [2] is listed as 94%. Besides, the Ki under setting [1] was 1.26 nM.

Regarding `Cc1ccsc1C1=Nc2cc(C(=O)NCC(C)C)ccc2Sc2ccccc21` [drawing 1516], the “Binding rat Inh %” value under setting [2] came to 98%. For the same compound, the Ki under setting [1] is 10 nM.

For the compound `CCCCNC(=O)c1ccc2c(c1)N=C(c1ccc(Cl)cc1)c1cc(Cl)ccc1S2` [drawing 1464], the “Binding rat Inh %” value under setting [2] was determined as 78%. In addition, the Ki under setting [1] was 7.94 nM.

As for `O=C(NCCCc1ccccc1)c1ccc2c(c1)N=C(c1ccccc1)c1ccccc1S2` [drawing 1450], under setting [1], the Ki was 7.94 nM.

On to `CCCCNC(=O)c1ccc2c(c1)N=C(c1ccc(F)cc1)c1ccccc1S2` [drawing 1238], for which the Ki under setting [1] is 15.8 nM.

`O=C(NN1CCCCC1)c1ccc2c(c1)N=C(C1CCCCC1)c1ccccc1O2` gave a Ki of 63.1 nM.

Take `CN1c2ccc(C(=O)NCc3ccc(F)cc3)cc2N=C(c2ccc(F)cc2)c2ccccc21` [drawing 1496]: under setting [2], the “Binding rat Inh %” value stood at 83%. Further, the Ki under setting [1] is 63.1 nM.

In the case of `C[C@@H]1CCC[C@H](C)N1NC(=O)c1ccc2c(c1)N=C(c1ccc(Cl)c(Cl)c1)c1ccccc1S2` [drawing 1393], the “Binding rat Inh %” value under setting [2] was determined as 114%. Under setting [1], the Ki is 5.01 nM.

Take `O=C(NN1CCCCC1)c1ccc2c(c1)N=C(c1ccc(Cl)c(Cl)c1)c1ccccc1S2` [drawing 1305]: under setting [2], the “Binding rat Inh %” value is given as 96%. The Ki under setting [1] is 2.51 nM.

On to `CC(C)CNC(=O)c1ccc2c(c1)N=C(c1ccsc1)c1ccccc1S2` [drawing 1303], for which the “Binding rat Inh %” value under setting [2] was found to be 90%. Moreover, the Ki under setting [1] is 2.51 nM.

Consider `CCOCCNC(=O)c1ccc2c(c1)N=C(c1cccc(Br)c1)c1ccccc1S2` [drawing 1323], for which the “Binding rat Inh %” value under setting [2] is 76%. Under setting [1], the Ki is 25.1 nM.

In the case of `CC(CNC(=O)c1ccc2c(c1)N=C(c1ccc(F)cc1)c1ccccc1S2)c1ccccc1` (stereo not shown) [drawing 1362], under setting [1], the Ki was 3.98 nM.

Turning to `COc1ccc(C2=Nc3cc(C(=O)NC4CCCC4)ccc3Sc3ccccc32)cc1` [drawing 1364], the “Binding rat Inh %” value under setting [2] worked out at 71%. Further, the Ki under setting [1] is 31.6 nM.

For `O=C(NCc1cccc(Cl)c1)c1ccc2c(c1)N=C(c1ccc(F)cc1)c1ccccc1S2(=O)=O` [drawing 1408], the Ki under setting [1] is 6.31 nM.

`CCCCNS(=O)(=O)c1ccc2c(c1)N=C(c1ccc(Cl)cc1)c1ccccc1S2` [drawing 1405]: the “Binding rat Inh %” value under setting [2] is 92%. Under setting [1], the Ki was 39.8 nM.

On to `Cc1cnc(-c2ccc3c(c2)N=C(c2ccc(Cl)cc2)c2ccccc2S3)[nH]1` [drawing 1371], for which, under setting [2], the “Binding rat Inh %” value came to 84%. In addition, the Ki under setting [1] was 31.6 nM.

`CC(CNC(=O)c1ccc2c(c1)N=C(N1CCCCC1)c1cc(F)ccc1S2)c1ccccc1` (stereo not shown) [drawing 1513]: the Ki under setting [1] is 79.4 nM.

In the case of `O=C(NCc1ccccc1)c1ccc2c(c1)N=C(C1CCCCC1)c1ccccc1S2` [drawing 1343], the Ki under setting [1] is 3.98 nM.

For `Cc1ccsc1C1=Nc2cc(C(=O)NC3CCC(F)(F)CC3)ccc2Sc2ccccc21` [drawing 1265], the “Binding rat Inh %” value under setting [2] is on record as 93%. Besides, the Ki under setting [1] was 1.58 nM.

`CCCCNC(=O)c1ccc2c(c1)N=C(c1ccc(Cl)cn1)c1ccccc1S2` [drawing 1501]: the “Binding rat Inh %” value under setting [2] amounted to 98%. For the same compound, under setting [1], the Ki is 10 nM.

With `O=C(NCCc1cccc(Cl)c1)c1ccc2c(c1)N=C(c1ccccc1)c1ccccc1S2` [drawing 1457], under setting [1], the Ki was 7.94 nM.

As for `O=C(NCc1ccc(F)cc1)c1ccc2c(c1)N=C(c1ccccc1)c1ccccc1S2` [drawing 1352], the Ki under setting [1] was 3.98 nM.

`CC(C)CNC(=O)c1ccc2c(c1)N=C(c1ccc(Br)cc1)c1ccccc1S2` [drawing 1354]: under setting [2], the “Binding rat Inh %” value stood at 77%. For the same compound, the Ki under setting [1] was 3.98 nM.

In the case of `O=C(NCc1ccccc1Br)c1ccc2c(c1)N=C(c1ccccc1)c1ccccc1S2` [drawing 1483], the Ki under setting [1] was 63.1 nM.

As for `CC(C)CNC(=O)c1ccc2c(c1)N=C(c1ccc(Cl)cn1)c1ccc(F)cc1S2` [drawing 1229], the “Binding rat Inh %” value under setting [2] was 87%. Besides, the Ki under setting [1] is 15.8 nM.

`CC(C)CCNC(=O)c1ccc2c(c1)N=C(c1ccccc1Cl)c1ccccc1S2` [drawing 1188]: the “Binding rat Inh %” value under setting [2] stood at 116%. Also, the Ki under setting [1] was 12.6 nM.

As to `CCCNC(=O)c1ccc2c(c1)N=C(c1ccc(F)cc1)c1ccccc1S2` [drawing 1262], the “Binding rat Inh %” value under setting [2] is 87%. Moreover, the Ki under setting [1] was 20 nM.

Turning to `O=C(NCCc1ccccn1)c1ccc2c(c1)N=C(c1cccc(Cl)c1)c1ccccc1S2` [drawing 1475], the “Binding rat Inh %” value under setting [2] is on record as 76%. For the same compound, the Ki under setting [1] is 63.1 nM.

Regarding `O=C(NCc1ccc(F)cc1)c1ccc2c(c1)N=C(c1cccc(Cl)c1)c1ccccc1S2` [drawing 1391], the Ki under setting [1] was 5.01 nM.

On to `O=C(NCc1ccco1)c1ccc2c(c1)N=C(c1ccc(Cl)c(Cl)c1)c1ccccc1S2` [drawing 1402], for which, under setting [2], the “Binding rat Inh %” value came to 84%. The Ki under setting [1] is 6.31 nM.

With `Cc1csc(CNC(=O)c2ccc3c(c2)N=C(c2cccc(F)c2)c2ccccc2S3)c1` [drawing 1234], the “Binding rat Inh %” value under setting [2] was determined as 89%. For the same compound, the Ki under setting [1] was 0.794 nM.

Regarding `CC(C)CNC(=O)c1ccc2c(c1)N=C(c1ccccc1F)c1ccccc1S2` [drawing 1307], the “Binding rat Inh %” value under setting [2] is listed as 90%. In addition, the Ki under setting [1] was 20 nM.

Consider `O=C(NC1CCCCC1)c1ccc2c(c1)N=C(c1ccccn1)c1ccccc1S2` [drawing 1537], for which the “Binding rat Inh %” value under setting [2] was determined as 77%. Under setting [1], the Ki was 100 nM.

For the compound `O=C(NCc1cccnc1)c1ccc2c(c1)N=C(c1ccccc1F)c1ccccc1S2` [drawing 1318], under setting [2], the “Binding rat Inh %” value was 73%. In addition, the Ki under setting [1] was 25.1 nM.

`COc1ccc(C2=Nc3cc(C(=O)NNC(=O)c4ccccc4)ccc3Sc3ccccc32)cc1` [drawing 1535]: the “Binding rat Inh %” value under setting [2] came to 68%. Under setting [1], the Ki was 79.4 nM.

On to `CCCCNC(=O)c1ccc2c(c1)N=C(c1ccc(Cl)cc1)c1ccccc1[S+]2[O-]` (stereo not shown) [drawing 1205], for which, under setting [1], the Ki was 12.6 nM.

Consider `COCCNC(=O)c1ccc2c(c1)N=C(c1ccc(Br)cc1)c1ccccc1S2` [drawing 1358], for which the “Binding rat Inh %” value under setting [2] is given as 89%. Besides, the Ki under setting [1] is 31.6 nM.

With `O=C(NCc1ccccc1Cl)c1ccc2c(c1)N=C(C1CCCCC1)c1ccccc1S2` [drawing 1491], under setting [1], the Ki was 10 nM.

With `CC(C)CNC(=O)c1ccc2c(c1)N=C(c1cccc(F)c1)c1ccccc1S2` [drawing 1490], under setting [2], the “Binding rat Inh %” value is 87%. Further, under setting [1], the Ki is 10 nM.

Consider `O=C(c1ccc2c(c1)N=C(c1ccc(F)cc1)c1ccccc1S2)N1CCCCC1` [drawing 1544], for which, under setting [1], the Ki is 100 nM.

As for `CCCNC(=O)c1ccc2c(c1)N=C(c1ccc(Cl)cc1F)c1ccccc1S2` [drawing 1276], the “Binding rat Inh %” value under setting [2] was found to be 98%. The Ki under setting [1] is 20 nM.

With `CCCCNC(=O)c1ccc2c(c1)N=C(c1sccc1C)c1ccccc1S2` [drawing 1244], the “Binding rat Inh %” value under setting [2] amounted to 103%. Under setting [1], the Ki was 15.8 nM.

For `CCCCNC(=O)c1ccc2c(c1)N=C(c1ccc(Cl)cn1)c1ccc(F)cc1S2` [drawing 1317], the “Binding rat Inh %” value under setting [2] is 86%. Moreover, under setting [1], the Ki was 25.1 nM.

With `CC(NC(=O)c1ccc2c(c1)N=C(c1cccc(Cl)c1)c1ccccc1S2)c1ccccc1` (stereo not shown) [drawing 1465], under setting [1], the Ki is 7.94 nM.

With `O=C(NCCC(F)(F)F)c1ccc2c(c1)N=C(c1ccc(F)cc1)c1ccccc1S2` [drawing 1418], the “Binding rat Inh %” value under setting [2] is 105%. Under setting [1], the Ki is 6.31 nM.

As for `O=C(NN1CCCCC1)c1ccc2c(c1)N=C(c1ccc(Br)cc1)c1ccccc1S2` [drawing 1423], the “Binding rat Inh %” value under setting [2] worked out at 89%. Under setting [1], the Ki is 6.31 nM.

As for `O=C(NN1CCCCCC1)c1ccc2c(c1)N=C(c1ccc(Cl)cc1)c1ccccc1S2` [drawing 1463], under setting [2], the “Binding rat Inh %” value is 82%. Also, the Ki under setting [1] was 7.94 nM.

Turning to `CC(CNC(=O)c1ccc2c(c1)N=C(c1ccc(Cl)cc1)c1cc(F)ccc1S2)c1ccccc1` (stereo not shown) [drawing 1524], the Ki under setting [1] was 10 nM.
